In patent US20070004691A1, “Antitumoral combinations containing et-743 and a cruciferous and a cruciferous indole compound” (priority 2003, published 2007):

What was measured:
[1] = system: rat livers; test: Hepatoprotection by modulators of drug metabolism against ET-743; settings: compared with dexamethasone
[2] = system: female rat; settings: high-dose dexamethasone pretreatment; cited from earlier work
[3] = system: female Fischer rats; test: Protection against pathological manifestations of ET-743 in the liver of tumor-bearing Fischer rats; type: in vivo; settings: 0.5% dietary I3C, compared with Wistar rat
Description: (§1) 13762 tumor fragments (100-200 mg weight) were implanted (sc) into the flank of female Fischer rats (100-120 g). […] Properties of the 13762 tumour have previously been described for example in Braunschweiger P. G., and Schiffer L. M. 1980, J. Natl. Cancer Inst., 64: 671-674: “Growth kinetics of mammary tumor 13762 in rats previously cured by chemotherapy”. Tumor weight (TW) was calculated on each day via tumor diameters, using a Vernier caliper and the formula: TW (in mg)=tumor volume (mm3)=d^2×D/2, in which d and D represent the shortest and longest diameter, respectively. Rats (9-10 per group) received I3C in their diet (0.5%) from the day of tumor implantation to the end of the experiment. ET-743 (40 μg/kg, i.v.) was administered on day 6 post tumor implantation.

[4] = system: female Wistar rats; test: Study of hepatotoxicity: protection against ET-743-induced liver damage; type: in vivo, rat
Description: I3C at 0.1 or 0.5% or di-indolyl methane (DIM) at 0.2% were added to the diet of female Wistar rats (230-260 g) seven days prior to treatment with a hepatotoxic dose of ET-743 (40 μg/kg, iv. via the lateral tail vein). This amount constitutes doses equivalent to approximately 80 and 400 mg/kg I3C per day. Control animals received the unaltered diet and/or water as the vehicle for ET-743. The dose of DIM was based on the following consideration: DIM is the product of the condensation of two molecules of I3C, therefore assuming all of the I3C in the 0.5% dose group dimerises to form DIM, the maximal amount of DIM which could theoretically be generated is half of the amount of I3C in the diet. Each treatment group comprised 4 animals. Hepatic changes were studied by assessment of alterations in plasma levels of bilirubin and liver enzymes ALP and aspartate aminotransferase (AST) and by conventional histopathological investigation of liver tissue.

[5] = system: 13762 tumor; test: Study of antitumor activity: 13762 tumor fragments implanted sc; type: in vivo, rat; settings: for tumor weight inhibition (TWI): day 20, I3C 0.5% in diet from implantation, ET-743 40 μg/kg i.v. on day 6, female Fischer rats, weight from caliper diameters; for decrease of terminal tumor weight: tumors excised and weighed at termination of the experiment (day 20), I3C 0.5% diet, ET-743 40 μg/kg i.v.
Description: as §1

[6] = system: patients; settings: prolonged infusion over 24-72 hr; cited from earlier work
[7] = system: human tumour xenografts grown in athymic mice; settings: including melanoma and ovarian and breast carcinoma; cited from earlier work
[8] = Study of ET-743 levels in liver and plasma (HPLC-ESI-MS/MS); type: in vivo, rat; settings: for AUC of ET-743 in liver (0-24 h after dosing), mean: rat liver; for AUC of ET-743 in plasma (0-24 h after dosing), mean: rat plasma
Description: We tested the hypothesis that I3C pretreatment alters clearance of ET-743 from plasma and liver in vivo. Blood samples and liver tissue were collected from rats before and up to 24 h after administration of ET-743 (40 μg/kg iv.) with or without treatment with I3C (0.5% in the diet) given from 6 days prior to ET-743. Blood samples (by cardiac puncture) and liver tissue were collected before and at 0.5, 1, 3, 6, 12 and 24 h post treatment. Blood was placed in heparinized tubes, and plasma was obtained by centrifugation. An aliquot (0.3 ml) was mixed with 0.7 ml ammonium acetate buffer (0.2 M, pH 5.0). Liver tissue was homogenized (1:1) in water. Levels of ET-743 were measured by HPLC coupled to electrospray ionization tandem mass spectrometry in the plasma and liver samples.

[9] = system: mice, rats, dogs and monkeys; settings: plasma liver-specific enzymes, cholangitis; cited from earlier work
[10] = I3C 0.1% in diet plus ET-743 40 μg/kg iv
[11] = ET-743 alone, 40 μg/kg iv, female Wistar rats
[12] = ET-743 40 μg/kg iv in combination with I3C (0.5% in the diet from 6 days prior)

CCC1(c2ccccc2)C(=O)NC(=O)NC1=O [phenobarbitone]
amelioration of ET-743 mediated hepatotoxicity [1]: weak

CC(=O)N[C@@H](CS)C(=O)O [N-acetylcysteine]
amelioration of ET-743 mediated hepatotoxicity [1]: failed to protect

C[C@@H]1C[C@H]2[C@@H]3CCC4=CC(=O)C=C[C@]4(C)[C@@]3(F)[C@@H](O)C[C@]2(C)[C@@]1(O)C(=O)CO [dexamethasone]
hepatic levels of ET-743 after pretreatment [2]: dramatic reduction

OCc1c[nH]c2ccccc12 [I3C, 1H-indole-3-methanol]
protection against the pathological manifestations of ET-743 in the liver [3]: same degree of protection
plasma bilirubin levels compared to ET-743 alone ([4]; I3C 0.1% in diet (approx. 80 mg/kg per day) from seven days prior to ET-743 40 μg/kg iv): moderately reduced
AST and ALP activity compared with levels induced by ET-743 alone [4, 10]: did not decrease
pathological manifestations of liver damage compared to ET-743 only [4, 10]: only marginally less severe
protection as reflected by the biochemical indices ([4]; I3C 0.5% in diet (approx. 400 mg/kg per day) plus ET-743 40 μg/kg iv): complete
protection adjudged on the basis of liver pathology ([4]; I3C 0.5% in diet plus ET-743 40 μg/kg iv, 3 and 9 days): substantial, albeit not complete
weight of the animals or liver function (biochemical indices or pathology) ([4]; consumption of I3C on its own in the diet): did not affect
tumor weight inhibition (TWI) [5]: 35%
decrease of terminal tumor weight [5]: 43%

COc1cc2c(cc1O)CCN[C@]21CS[C@@H]2c3c(OC(C)=O)c(C)c4c(c3[C@H](COC1=O)N1C2C2c3c(cc(C)c(OC)c3O)C[C@@H]([C@@H]1O)N2C)OCO4 (stereo partly shown) [ET-743, Ecteinascidin 743]
activities of ALP and AST [4, 11]: elevated
plasma levels of bilirubin [4, 11]: dramatically raised
liver pathology ([4]; ET-743 alone, 40 μg/kg iv, day 3 and day 9): severe bile duct damage on day 3 and biliary sclerosis on day 9
side effects in patients [6]: myelotoxic and hepatotoxic
antineoplastic activity [7]: potent
AUC of ET-743 in liver (0-24 h after dosing), mean [8, 12]: 563 ngxh/ml
AUC of ET-743 in plasma (0-24 h after dosing), mean [8, 12]: 1.9 ngxh/ml
AUC of ET-743 in liver (0-24 h after dosing), mean ([8]; ET-743 alone, 40 μg/kg iv): 280 ngxh/ml
AUC of ET-743 in plasma (0-24 h after dosing), mean ([8]; ET-743 alone, 40 μg/kg iv): 4.7 ngxh/ml
side effect in preclinical acute toxicity studies [9]: liver toxicity
tumor weight inhibition (TWI) [5]: 62%
decrease of terminal tumor weight [5]: 54%

O=c1cc(-c2ccccc2)oc2ccc3ccccc3c12 [β-naphthoflavone]
amelioration of ET-743 mediated hepatotoxicity [1]: persisted only for a short term
